Measurements as given in patent US9301923B2, “Lipids, lipid compositions, and methods of using them” (NOVARTIS AG, priority 2009, dated 2016).
“And” between values parts separate entries of the source, which are not always exact repeats. Equal values may be shown once.

Tests used:
[1] = Particle size and PDI by dynamic light scattering (Malvern Zetasizer); assay type: physicochemical; design: Final size: unit not given here; conditions: for Final size: LNP formulation, Table 10
Summary of the method: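 Nanoparticles diluted in PBS to a count rate of about 200-400 kcts and measured by dynamic light scattering; size given as intensity-weighted average diameter, with polydispersity index from the same measurement.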

[2] = pKa of the lipid by TNS fluorescence; assay type: physicochemical; conditions: pKa
Summary of the method: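 Lipid dissolved in ethanol (2 mM stock) and measured with TNS across eight buffers of differing pH, in water at standard temperature and pressure. Normalized fluorescence intensity plotted against pH and points joined by a smooth line to derive pKa, precise to about 0.2 units.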

[3] = system: PLK-1 mRNA in HepG2 tumors; assay: HepG2 tumor study, PLK-1 mRNA KD in tumor tissue; assay type: in vivo, human; conditions: Mus musculus, HepG2, iv, 24 h, HepG2 tumor in nude mice, 3 × 3 mg/kg siRNA iv, tumors harvested 24 hrs after the last dose; read-out: PLK1 % inhibition
Source text: (§1) Formulated siRNAs are made up of double stranded siRNA sequences specific to a target mRNA sequence, and are in the form of lipid nucleotid particles (LNPs) containing cationic lipids, stealth lipids and neutral lipids, as provided in the Examples below. The siRNA construct for use in targeting the liver is specific to Factor VII. The siRNA construct for use in targeting tumors is specific to PLK1-424, which is published by Judge et al., See, J Clin Invest. 2009 March; 119(3):661-73; doi: 10.1172/JCI37515). • 1. FVII siRNA duplex sequence
HepG2 tumors are established in female nude mice by sc injection of 5×10^6 cells in 100 ul PBS into the left flank. Mice are randomized into treatment groups 10-14 days after seeding as tumors reached an average size of 150 mm^3. siRNA formulated LNP formulations are administered at 3×3 mg/kg dose levels intravenously via the lateral tail vein calculated on a mg siRNAs/kg basis according to individual animal weights (10 ml/kg injection volume). Mice are euthanized by CO2 inhalation at various time points and the tumors are harvested 24 hrs after the last dose for mRNA quantitation. Lipids with a wide range of pKa (5.3-6.6) are used in the LNP formulations. Tumors are measured in 2 dimensions (width×length) to assess tumor growth using digital calipers. Tumor volume is calculated using the equation [a×b×b/2], where a=largest diameter and b=smallest diameter.
(§2) About 30-50 mg tumor tissue is homogenized in tissue lysis buffer in a Qiagen homogenizer followed by centrifugation to clarify lysates. Total RNA is isolated using RNeasy isolation kit (catalog number 74106) according to the manufacture's protocol. PLK-1 mRNA is analyzed by quantitative PCR and normalized to human GAPDH. Applied Biosystems human PLK-1 gene expression assay Hs00983229_m1 and human GAPDH endogenous control cat number 4326317E are used for mRNA detection.
(§3) The pKa in all tables refers to the pKa of the cationic lipid. Where multiple doses are indicated (e.g., 3×5), the first number indicates the number of doses given and the second number indicates the amount per dose in mg siRNA (biologically active agent) per kg mouse. In general the multiple doses are administered at 24 hour intervals, and tissues for mRNA quantitation are harvested 24 hours after the last dose.

[4] = system: PLK-1 mRNA in Hep3B tumors; assay: Hep3B tumor study, PLK-1 mRNA KD in tumor tissue; assay type: in vivo, human; conditions: for PLK1 inhibition %: Hep3B tumor, mouse, i.v., LNP composition as in the source; for % KD: formulation containing E0011 and S004
Source text: as §1
Hep3B tumors are established in female nude mice by sc injection of 7×10^6 cells in 100 ul PBS into the left flank. Mice are randomized into treatment groups 10-14 days after seeding as tumors reached an average size of 100 mm^3. siRNA formulated LNP formulations are administered at various dose levels intravenously via the lateral tail vein calculated on a mg siRNAs/kg basis according to individual animal weights (10 ml/kg injection volume). Mice are euthanized by CO2 inhalation at various time points and the tumors are harvested for mRNA quantitation. Lipids with a wide range of pKa (5.3-6.6) are used in the LNP formulations. Tumors are measured in 2 dimensions (width×length) to assess tumor growth using digital calipers. Tumor volume is calculated using the equation [a×b×b/2], where a equals the largest diameter and b equals the smallest diameter.
as §2, §3

Factor VII = Factor VII activity assay, in vivo liver delivery of FVII siRNA LNP; design: species or system mouse; conditions: ~48 h
Summary of the method: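 Female CD-1 mice (~25 g) given a single i.v. tail-vein dose of FVII siRNA in LNPs (cationic, stealth, neutral lipids), dosed as mg siRNA/kg. Plasma collected ~48 h post-injection; FVII activity read against a standard curve from pooled vehicle-control plasma.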

[5] = lipid/DSPC/CHOL/AVANTI 880150P 50/28/18/4, N/P 3.43
[6] = lipid/no neutral lipid/CHOL/AVANTI 880150P 50/0/46/4, N/P 3.43
[7] = dose 3 mg/kg siRNA i.v., lipid/DSPC/CHOL/AVANTI 880150P 50/28/18/4, N/P 3.43
[8] = dose 3 mg/kg siRNA i.v., lipid/no neutral lipid/CHOL/AVANTI 880150P 50/0/46/4, N/P 3.43
[9] = LNP formulation with PLK1 siRNA, helper, neutral and stealth lipid, molar ratio and N/P as in the table
[10] = lipid/no neutral lipid/CHOL/GM-020 NOF 60/0/36/4, N/P 3
[11] = dose 1 mg/kg siRNA i.v., lipid/no neutral lipid/CHOL/GM-020 NOF 60/0/36/4, N/P 3
[12] = lipid/no neutral lipid/CHOL/S006 60/0/37/3, N/P 3
[13] = lipid/no neutral lipid/CHOL/S010 60/0/37/3, N/P 3

Structure (SMILES) | pKa [2] | Final size (nm) [1, 5] [nm] | PDI [1, 5] | Final size (nm) [1, 6] | PDI [1, 6] | PLK1 inhibition % ([4]; 1 × 5 mg siRNA/kg) [%] | FVII inhib % (Factor VII; [7]) [%] | FVII inhib % (Factor VII; [8]) [%] | Final size (nm) [1, 9] [nm] | other results
CCCCCCCC/C=C\CCCCCCCCOCC(CN1CCOCC1)OCCOCCNC(=O)O[C@H]1CC[C@@]2(C)C(=CC[C@H]3[C@@H]4CC[C@H]([C@H](C)CCCC(C)C)[C@@]4(C)CC[C@@H]32)C1 (stereo partly drawn) [E0175] | 5.67 |  |  |  |  |  |  |  |  | Final size ([1]; molar ratio 50/43/5/2, N/P 3.8): 93.51; Final size ([1]; molar ratio 60/38/2, N/P 4): 78.74; inhibition at 3 mg/kg [3]: 49%
CCCCC/C=C\C/C=C\CCCCCCCCOC[C@@H](CN1CCC[C@H]1C)OCCCOC(=O)CCC(=O)O[C@H]1CC[C@@]2(C)C(=CCC3C2CC[C@@]2(C)C3CC[C@@H]2[C@H](C)CCCC(C)C)C1 (stereo partly drawn) [E0162] | 6.07 |  |  |  |  |  |  |  |  | Final size [1]: 114.4; inhibition at 3 mg/kg [3]: 0%
CCCCC/C=C\C/C=C\CCCCCCCCOCC(CN1CCC(C)CC1)OCCOCCO[C@H]1CC[C@@]2(C)C(=CC[C@H]3[C@@H]4CC[C@H]([C@H](C)CCCC(C)C)[C@@]4(C)CC[C@@H]32)C1 (stereo partly drawn) [E0008] | 5.81 | 85 | 0.168 | 84 nm | 0.214 | 85 | 73 | 84.5 |  | Final size (nm) ([1]; LNP formulation with PLK1 siRNA, helper, neutral and stealth lipid, molar ratio and N/P as in the table, stealth lipid S004, molar ratio 60/38/2, N/P 4): 123.1 nm; Final size (nm) ([1]; LNP formulation with PLK1 siRNA, helper, neutral and stealth lipid, molar ratio and N/P as in the table, stealth lipid S011, molar ratio 60/38/2, N/P 4): 93.11 nm; PLK1 inhibition % ([4]; 1 × 1 mg siRNA/kg): 38%
CCCCC/C=C\C/C=C\CCCCCCCCOCC(CN1CCCCC1)OCCCOCCCO[C@H]1CC[C@@]2(C)C(=CC[C@H]3[C@@H]4CC[C@H]([C@H](C)CCCC(C)C)[C@@]4(C)CC[C@@H]32)C1 (stereo partly drawn) [E0077] | 5.79 |  |  |  |  | 77 |  |  | 120.8 | Final size (nm) [1, 10]: 109.8 nm; PDI [1, 10]: 0.127; FVII inhib % (Factor VII; [11]): 26.8%
CCCCC/C=C\C/C=C\CCCCCCCCOCC(CN1CCOCC1)OCCOCCO[C@H]1CC[C@@]2(C)C(=CC[C@H]3[C@@H]4CC[C@H]([C@H](C)CCCC(C)C)[C@@]4(C)CC[C@@H]32)C1 (stereo partly drawn) [E0011] | 5.32 | 111 | 0.221 | 108 nm | 0.23 | 66 | 86.5 | 92.3 |  | Final size ([1]; stealth lipid S018): 113.2; Final size ([1]; stealth lipid S019): 110; Final size ([1]; stealth lipid S020): 74.42; PLK1 inhibition % ([4]; 3 × 10 mg siRNA/kg): 71%; % KD ([4]; Table 9, 1×10 mg/kg siRNA): 70%; % KD ([4]; Table 9, 3×5 mg/kg siRNA): 67%
CCCCC/C=C\C/C=C\CCCCCCCCOCC(Cn1ccnc1)OCCOCCO[C@H]1CC[C@@]2(C)C(=CCC3C2CC[C@@]2(C)C3CC[C@@H]2[C@H](C)CCCC(C)C)C1 (stereo partly drawn) [E0051] | 5.73 | 157.7 | 0.131 | 142.9 nm | 0.057 |  | 17 | 77.5 | 85.77 | PLK1 inhibition % ([4]; 1 × 10 mg siRNA/kg): 17%
CCCCC/C=C\C/C=C\CCCCCCCCOCC(CN1CCC(OC)C1)OCCOCCO[C@H]1CC[C@@]2(C)C(=CC[C@H]3[C@@H]4CC[C@H]([C@H](C)CCCC(C)C)[C@@]4(C)CC[C@@H]32)C1 (stereo partly drawn) [E0024] | 6.62 | 100 | 0.148 | 149 nm and 125 nm | 0.092 and 0.08 |  | 99.9 | 99.5 |  | Final size (nm) ([1]; LNP formulation with PLK1 siRNA, helper, neutral and stealth lipid, molar ratio and N/P as in the table, stealth lipid S004, molar ratio 60/38/0/2, N/P 3): 120.6 nm; Final size (nm) ([1]; LNP formulation with PLK1 siRNA, helper, neutral and stealth lipid, molar ratio and N/P as in the table, stealth lipid S011, molar ratio 40/48/10/2, N/P 3): 88.46 nm; Final size (nm) [1, 12]: 98.53 nm; PDI [1, 12]: 0.12; Final size (nm) [1, 13]: 96.09 nm; PDI [1, 13]: 0.137; PLK1 inhibition % ([4]; 1 × 10 mg siRNA/kg): 15%; PLK1 inhibition % ([4]; 4 × 5 mg siRNA/kg): 23%; FVII inhib % (Factor VII; dose 1 mg/kg siRNA i.v., lipid/DSPC/CHOL/AVANTI 880150P 50/28/18/4, N/P 3.43): 85.3%; FVII inhib % (Factor VII; dose 1 mg/kg siRNA i.v., lipid/no neutral lipid/CHOL/AVANTI 880150P 50/0/46/4, N/P 3.43): 95.7%; FVII inhib % (Factor VII; dose 1 mg/kg siRNA i.v., lipid/no neutral lipid/CHOL/S006 60/0/37/3, N/P 3): 83.8%; FVII inhib % (Factor VII; dose 1 mg/kg siRNA i.v., lipid/no neutral lipid/CHOL/S010 60/0/37/3, N/P 3): 72.2%
CCCCCCCC/C=C\CCCCCCCCOCC(CN1CCCCC1)OCCO[C@H]1CC[C@@]2(C)C(=CC[C@H]3[C@@H]4CC[C@H]([C@H](C)CCCC(C)C)[C@@]4(C)CC[C@@H]32)C1 (stereo partly drawn) [E0061] | 6.28 |  |  |  |  |  |  |  | 90.09 | Final size (nm) [1, 10]: 139.4 nm; PDI [1, 10]: 0.073; PLK1 inhibition % ([4]; 1 × 1 mg siRNA/kg): 23%; FVII inhib % (Factor VII; [11]): 52.6%
